Assay results from publication PMC11063903, “Engineering a human P2X2 receptor with altered ligand selectivity in yeast” (The Journal of Biological Chemistry, 2024).

What was measured:
P2X2 Y299F = target: T1, P2X2 Y299F (Homo sapiens, UniProt Q9UBL9, Y299F); assay: Site-saturation screen of ligand-binding domain with ATP, Y299F; type: cell-based; conditions: 500 μM ATP, ± sd
T1 construct: expressed in transfected cells; host or cells: S. cerevisiae BY4741 background
Source text: (§1) The yeast P2X2 screening platform poses an opportunity to probe the structure-function of the ligand-binding domain in detail. The conserved P2X “NFR” motif at residues 300 to 302 is directly involved in bonding to the ATP triphosphate moiety ([41]), so we mutagenized residues at or near this motif (298–304), ultimately covering 133 variants (7 sites, 19 residues each). […] We compared our results to phylogenetic data based on a multiple sequence alignment (MSA) from a curated set of 419 related P2X homologs (Figs. 3B, and S5; Table S1).
(§2) Figure 3 Structure-function analysis of the ligand binding domain.A, heat map summarizing the screening data of ATP with seven site-saturation libraries surrounding the NFR-motif. B, sequence-logo plot of the mutagenized residues and percent identity scores as determined from MSA. C, homology model of P2X2 colored by sequence conservation as calculated from a multiple sequence alignment of 419 related P2X genes. Conservation is scored on a log scale where maroon is more conserved and blue is less conserved. D, ATP in the ligand-binding pocket of P2X2. […]
(§3) GCaMP assays were performed as follows. […] Cells were loaded onto a black, clear bottom microplate and imaged on a FlexStation3 plate reader. […] Fluorescence was measured with an excitation at 485 nm, and emission 525 nm. […] For strains with mScarlet, fluorescence was read with excitation 570 nm/emission 610 nm. […]

P2X2 G298 substitutions = assay: Site-saturation screen of ligand-binding domain with ATP, G298 substitutions; type: cell-based, human; conditions: 500 μM ATP
Source text: as §1, §2, §3

human P2X2 receptor = target: T2, human P2X2 receptor (Homo sapiens, UniProt Q9UBL9); assay: GCaMP calcium assay of P2X2 expressed in yeast S. cerevisiae, agonist response; type: cell-based
T2 construct: expressed in transfected cells; host or cells: S. cerevisiae BY4741 background, P2X2 genome-integrated under a galactose-inducible promoter
T2 sequence (Q9UBL9 1-471): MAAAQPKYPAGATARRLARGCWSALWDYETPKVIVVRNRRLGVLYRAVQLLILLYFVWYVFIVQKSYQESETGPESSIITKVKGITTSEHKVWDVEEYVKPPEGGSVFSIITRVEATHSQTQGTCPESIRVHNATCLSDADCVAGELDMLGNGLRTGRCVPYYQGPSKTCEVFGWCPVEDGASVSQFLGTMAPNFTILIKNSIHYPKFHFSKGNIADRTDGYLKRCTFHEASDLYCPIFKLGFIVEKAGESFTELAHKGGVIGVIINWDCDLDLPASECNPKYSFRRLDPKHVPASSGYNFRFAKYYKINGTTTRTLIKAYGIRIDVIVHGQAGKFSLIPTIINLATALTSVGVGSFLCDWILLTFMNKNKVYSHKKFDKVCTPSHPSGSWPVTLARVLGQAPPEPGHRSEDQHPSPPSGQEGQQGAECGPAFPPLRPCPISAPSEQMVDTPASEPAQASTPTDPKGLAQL
Source text: Although P2X receptors are expressed in many eukaryotic organisms including some fungi ([24]), they are not present in S. cerevisiae. For recombinant expression to yield functional P2X channels, receptor proteins must be correctly folded, assembled into trimers, and efficiently trafficked to the plasma membrane. To assess whether P2X ion channels could functionally gate in S. cerevisiae the canonical isoforms of P2X1-7 were co-expressed with aequorin, a calcium-activated photoprotein from the jellyfish Aequorea victoria.
Genetic knockouts of the calnexin homolog (ΔCne1p) and vacuolar calcium transporter (Δ Vcx1p) (n = 3) were compared to the WT yeast strain (n = 2). […] Statistical analysis was performed using one-way ANOVA with Dunnett’s multiple comparisons test where ∗∗ is p ≤ 0.01. […] Yeast were injected with ATP at 21 s and onset rates from the last six points (40–48 s) were used for calculating the dose response in (D). E and F, kinetic and dose–response measurements of P2X2 with the GCaMP reporter with ATP (n = 4), partial agonist BzATP (n = 3), and agonist 2-chloro-ATP (n = 4). Figures (D and F) share the figure legend with (C). […] Suramin was pre-equilibrated with P2X2-yeast for 10 min and 5 μM ATP was injected.
To expand the assay throughput to accommodate several 96-well plates at a time, we required the acquisition of short-duration signals. Since GCaMP signals are typically measured in terms of ΔF/F0, where ΔF is Fmax-Fmin, and since the signal takes several minutes to reach Fmax, we instead attempted to correlate the rate of signal onset (rather than its amplitude) with channel activity.
Having optimized our yeast strains and assay throughput, we sought to further validate the function of human P2X2 in the yeast host.
GCaMP assays were performed as follows. P2X2 GCaMP strains were designed with a bi-cistronic reporter, in which the GCaMP protein was followed by a 2A peptide and a mScarletI reporter ([53]). The co-translated mScarletI was designed to act as a control for plasmid loss, GCaMP breakage via nonsense mutation, and contamination. […] P2X2-GCaMP strains were cultured and induced as previously described. Samples were induced for 24 h to allow for the accumulation of the mature GCaMP protein. Cells were washed three times in 0.1 M MES/Tris buffer and resuspended with MES/Tris with supplemental calcium. Cells were loaded onto a black, clear bottom microplate and imaged on a FlexStation3 plate reader. Samples were imaged in “flex” mode. Samples were imaged for 48 s at an interval of 1.6 s. Fluorescence was measured with an excitation at 485 nm, and emission 525 nm. At the 21 s mark, 100 μl ligand solution was transferred to the cells. For strains with mScarlet, fluorescence was read with excitation 570 nm/emission 610 nm. Slopes were calculated from the last 6 points of measurement and were normalized to the positive control samples. Any replicate in which the mScarlet value was measured to be over 2 standard deviations less than the mean for that set was discarded from further analysis.

[1] = system: P2X2 all variants at V60, including the V60L mutation; assay: Site-saturation screen, fast kinetic assay in yeast, V60 variants; type: cell-based, human; conditions: 500 μM ATP f.c., ΔF/ΔT normalized to WT
Experimental: Figure 2 P2X2 SNP testing.A, homology model of P2X2 with the clinically implicated SNPs highlighted. V60 is highlighted in magenta and G353 is highlighted in dark blue. Lines indicate the positions of the mutations on each of the three monomers. B, zoomed view of the transmembrane region from the purple box in (A). V60 is magenta and G353 is dark blue. The structure is rotated 60° on the right image. C, screening data from site-saturation of the V60 residue in saturating ATP concentration (500 μM f.c.) using the fast kinetic assay. Signal onset values (ΔF/ΔT) are normalized to values from the WT receptor. […] Each of 2 to 3 replicates is represented as a single point. […]
GCaMP assays were performed as follows. […] Cells were loaded onto a black, clear bottom microplate and imaged on a FlexStation3 plate reader. […] Fluorescence was measured with an excitation at 485 nm, and emission 525 nm. […] For strains with mScarlet, fluorescence was read with excitation 570 nm/emission 610 nm. Slopes were calculated from the last 6 points of measurement and were normalized to the positive control samples. Any replicate in which the mScarlet value was measured to be over 2 standard deviations less than the mean for that set was discarded from further analysis.

T1 sequence (Q9UBL9 whole entry Y299F, the tested form may be a part): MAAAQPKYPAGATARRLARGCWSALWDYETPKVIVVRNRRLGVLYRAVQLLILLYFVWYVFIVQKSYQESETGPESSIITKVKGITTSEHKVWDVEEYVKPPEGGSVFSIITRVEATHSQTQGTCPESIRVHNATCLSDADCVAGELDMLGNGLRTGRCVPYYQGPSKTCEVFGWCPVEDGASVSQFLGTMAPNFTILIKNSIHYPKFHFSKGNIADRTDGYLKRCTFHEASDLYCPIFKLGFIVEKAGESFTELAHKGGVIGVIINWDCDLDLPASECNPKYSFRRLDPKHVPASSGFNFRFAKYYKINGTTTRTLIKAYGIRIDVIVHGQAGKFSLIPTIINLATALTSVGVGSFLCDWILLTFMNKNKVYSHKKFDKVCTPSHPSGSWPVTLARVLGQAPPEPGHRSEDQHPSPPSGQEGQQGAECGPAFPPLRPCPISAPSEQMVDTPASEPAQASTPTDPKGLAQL

Q: What does the source list for `Nc1ncnc2c1ncn2[C@@H]1O[C@H](COP(=O)(O)OP(=O)(O)OP(=O)(O)O)[C@@H](O)[C@H]1O` [ATP]?
A: signal relative to WT (P2X2 Y299F): 21 ± 12%; ligand gating activity compared to the negative control (P2X2 G298 substitutions): none of the G298 substitutions exhibiting ligand gating activity; maximum fluorescence compared to a negative control receptor (human P2X2 receptor; GCaMP strain, saturating (500 μM) ATP, vs K81C K83C P2X2): 12 fold; pEC50 (signaling onset rate ΔF/ΔT) (human P2X2 receptor; rapid GCaMP assay format, yeast, Fig. 1D): 5.88 ± 0.056; EC50 (human P2X2 receptor; rapid GCaMP assay format, yeast, Fig. 1D, read-out: EC50 (signaling onset rate ΔF/ΔT)): 1300 nM; response to ATP [1]: unresponsive
